How the values were obtained:
Format in all cases: cell-based
[1] = tested on: fetal hemoglobin (HbF) in GCSF-mobilized human CD34+ cells; test: HbF Induction Assay; details: 168 h; compound 1 μM, 7 days, erythroid-differentiated human CD34+ cells, flow cytometry; DMSO baseline 15% HbF positive cells
Experimental: The expansion, differentiation, and maturation of GCSF-mobilized human CD34^+ (STEMCELL Technologies Inc.) cells towards erythroid lineage cells were performed using a two-phase liquid culture model (Moutouh-de Parseval L A, el al. Pomalidomide and lenalidomide regulate erythropoiesis and fetal hemoglobin production in human CD34+ cells. J Clin Invest. 2008 January; 118(1):248-58). In the first phase, GCSF-mobilized human CD34^+ cells were cultured using StemSpan™-XF (STEMCELL Technologies Inc.) media supplemented with 1×BIT 9500, Penicillin-Streptomycin (50 U/mL), 100 ng/mL recombinant human (rh) SCF, 100 ng/mL rh Flt3-L, 20 ng/mL rh IL-3 and 10 ng/mL rh EPO and the growth of cells maintained in exponential phase for 7 days at 37° C. with 5% CO2 to support expansion and progenitor differentiation prior the second phase and treatment with compounds. In the second phase, culture media was changed to StemSpan™-XF media supplemented with 1×BIT 9500, Penicillin-Streptomycin (50 U/mL), 50 ng/mL rh SCF and 40 ng/mL rh EPO to promote further differentiation and maturation of the erythrocytes and to initiate treatment with compounds. Compounds were dispensed in duplicate at a final concentration of 1 μM in a final DMSO amount of 0.1%. Fresh compound was reapplied, and cell density was kept constant every 2 days. After 7 days, the cells were assessed for viability and fetal hemoglobin expression using flow cytometry. For viability analysis, eBioscience™ Fixable Viability Dye eFluor™ 780 (1:1000, eBioscience; Cat #65-0865-14) was added to the cells and kept in the dark for 10 minutes. For analysis of fetal hemoglobin (HbF), cells were fixed and permeabilized using Fixation Buffer (BioLegend; Cat #420801 and Intracellular staining permeabilization buffer (BioLegend, Cat #420201) following manufacturer's instructions. During permeabilization step, cells were stained with PE-labelled Mouse Anti-Human Fetal Hemoglobin (1:10, clone 2D12; BD Biosciences, Cat #BDB560041) incubated at room temperature for 20 minutes and protected from light. PE-labelled Mouse anti-IgG k, (1:10 clone MOPC-21; BD Biosciences, Cat# BDB551436) was used as an isotype control.
Viability, cell count, and fetal hemoglobin (HbF) levels were measured using an Attune NXT flow cytometer (Thermofisher) and the data analyzed using the FCS express software (De Novo Software). In Table 1 below, the effects of compounds of formula (I), formula (I′), formula (II), formula (II′), and formula (III) on % viable cells, viable cell count, on the % HbF positive cells and the median fluorescent intensity (MFI) of the HbF positive cell population compared to the DMSO controls can be viewed. All gates were set using the isotype negative control. The baseline % HbF positive cells for DMSO-treated control cells was 15%. Compounds of formula (I), formula (I′), formula (II), formula (II′), and formula (III) having HbF induction between 66% and 100% are level A. Compounds of formula (I), formula (I′), formula (II), formula (II′), and formula (III) having HbF induction between 33% and 66% are level B. Compounds of formula (I), formula (I′), formula (II), formula (II′), and formula (III) having HbF induction % less than 33% are level C. For certain compounds of formula (I), formula (I′), formula (II), formula (II′), and formula (III) % HbF induction values 0-33% (activity level C), between 33% and 66% (activity level B), and between 67% and 100% (activity level A) are shown in Table 2 below.

[2] = target: WIZ (Widely interspaced zinc finger) (Homo sapiens (Human), UniProt O95785+Q96SW2); test: HUDEP-2 WIZ HiBiT degradation assay; details: HUDEP-2 WIZ HiBiT cells, 24 hours treatment, luminescence; for DC50: read-out: WIZ EC50
Sequence of WIZ (Widely interspaced zinc finger) (O95785 whole entry, the tested form may be a part): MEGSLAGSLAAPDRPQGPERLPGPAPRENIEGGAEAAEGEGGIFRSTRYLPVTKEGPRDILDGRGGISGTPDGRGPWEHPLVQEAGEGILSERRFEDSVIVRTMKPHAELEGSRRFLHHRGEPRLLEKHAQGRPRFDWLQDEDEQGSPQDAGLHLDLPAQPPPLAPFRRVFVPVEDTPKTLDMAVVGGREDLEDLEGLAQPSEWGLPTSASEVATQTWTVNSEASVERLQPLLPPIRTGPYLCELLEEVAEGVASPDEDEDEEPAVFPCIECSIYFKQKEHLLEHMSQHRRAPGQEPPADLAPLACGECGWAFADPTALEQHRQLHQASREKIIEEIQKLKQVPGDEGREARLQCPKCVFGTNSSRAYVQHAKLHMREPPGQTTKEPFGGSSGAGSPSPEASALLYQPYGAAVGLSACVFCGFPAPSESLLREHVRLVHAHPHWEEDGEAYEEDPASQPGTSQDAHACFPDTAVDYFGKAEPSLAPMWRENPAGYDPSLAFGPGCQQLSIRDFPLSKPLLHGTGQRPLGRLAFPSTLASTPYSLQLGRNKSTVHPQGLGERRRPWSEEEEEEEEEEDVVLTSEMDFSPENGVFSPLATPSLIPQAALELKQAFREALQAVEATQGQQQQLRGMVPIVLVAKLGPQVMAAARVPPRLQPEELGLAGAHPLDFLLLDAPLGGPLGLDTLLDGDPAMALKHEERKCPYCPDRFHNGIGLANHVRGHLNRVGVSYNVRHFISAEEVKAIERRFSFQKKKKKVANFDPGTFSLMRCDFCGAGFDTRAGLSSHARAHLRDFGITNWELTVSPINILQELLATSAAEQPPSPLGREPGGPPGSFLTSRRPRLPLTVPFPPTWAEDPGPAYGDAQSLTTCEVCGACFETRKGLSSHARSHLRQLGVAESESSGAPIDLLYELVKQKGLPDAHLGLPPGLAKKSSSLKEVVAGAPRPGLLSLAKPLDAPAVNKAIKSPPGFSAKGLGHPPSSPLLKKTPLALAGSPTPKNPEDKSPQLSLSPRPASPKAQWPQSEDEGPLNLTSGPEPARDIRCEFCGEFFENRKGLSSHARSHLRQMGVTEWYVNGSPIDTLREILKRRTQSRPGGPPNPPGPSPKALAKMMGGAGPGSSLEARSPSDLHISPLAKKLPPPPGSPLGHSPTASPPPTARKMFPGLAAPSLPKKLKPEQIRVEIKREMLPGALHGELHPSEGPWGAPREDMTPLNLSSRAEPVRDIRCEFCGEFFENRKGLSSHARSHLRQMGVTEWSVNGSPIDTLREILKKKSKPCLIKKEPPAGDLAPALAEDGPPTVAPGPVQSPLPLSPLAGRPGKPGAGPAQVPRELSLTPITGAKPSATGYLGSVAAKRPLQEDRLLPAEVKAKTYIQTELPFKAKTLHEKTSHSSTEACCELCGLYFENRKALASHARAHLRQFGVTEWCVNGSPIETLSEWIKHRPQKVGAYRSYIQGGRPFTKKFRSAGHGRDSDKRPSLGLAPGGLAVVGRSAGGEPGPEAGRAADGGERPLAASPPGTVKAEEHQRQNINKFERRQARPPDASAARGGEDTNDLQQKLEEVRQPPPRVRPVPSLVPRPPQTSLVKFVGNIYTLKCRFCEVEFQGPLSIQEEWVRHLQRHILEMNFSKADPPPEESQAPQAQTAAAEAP
Sequence of WIZ (Widely interspaced zinc finger) (Q96SW2 whole entry, the tested form may be a part): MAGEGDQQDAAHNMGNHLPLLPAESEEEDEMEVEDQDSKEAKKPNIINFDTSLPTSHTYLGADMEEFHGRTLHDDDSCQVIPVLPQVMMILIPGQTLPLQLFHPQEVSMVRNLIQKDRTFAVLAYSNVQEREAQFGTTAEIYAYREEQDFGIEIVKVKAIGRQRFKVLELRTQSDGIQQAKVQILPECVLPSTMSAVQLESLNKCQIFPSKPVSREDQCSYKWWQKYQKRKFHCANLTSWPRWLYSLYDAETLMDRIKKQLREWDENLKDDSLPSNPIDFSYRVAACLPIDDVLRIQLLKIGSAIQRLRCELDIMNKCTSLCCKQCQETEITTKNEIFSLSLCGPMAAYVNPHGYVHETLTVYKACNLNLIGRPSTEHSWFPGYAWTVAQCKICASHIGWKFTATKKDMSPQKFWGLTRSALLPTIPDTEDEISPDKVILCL
Sequence of WIZ (Widely interspaced zinc finger) (Q16531 whole entry partner, the tested form may be a part): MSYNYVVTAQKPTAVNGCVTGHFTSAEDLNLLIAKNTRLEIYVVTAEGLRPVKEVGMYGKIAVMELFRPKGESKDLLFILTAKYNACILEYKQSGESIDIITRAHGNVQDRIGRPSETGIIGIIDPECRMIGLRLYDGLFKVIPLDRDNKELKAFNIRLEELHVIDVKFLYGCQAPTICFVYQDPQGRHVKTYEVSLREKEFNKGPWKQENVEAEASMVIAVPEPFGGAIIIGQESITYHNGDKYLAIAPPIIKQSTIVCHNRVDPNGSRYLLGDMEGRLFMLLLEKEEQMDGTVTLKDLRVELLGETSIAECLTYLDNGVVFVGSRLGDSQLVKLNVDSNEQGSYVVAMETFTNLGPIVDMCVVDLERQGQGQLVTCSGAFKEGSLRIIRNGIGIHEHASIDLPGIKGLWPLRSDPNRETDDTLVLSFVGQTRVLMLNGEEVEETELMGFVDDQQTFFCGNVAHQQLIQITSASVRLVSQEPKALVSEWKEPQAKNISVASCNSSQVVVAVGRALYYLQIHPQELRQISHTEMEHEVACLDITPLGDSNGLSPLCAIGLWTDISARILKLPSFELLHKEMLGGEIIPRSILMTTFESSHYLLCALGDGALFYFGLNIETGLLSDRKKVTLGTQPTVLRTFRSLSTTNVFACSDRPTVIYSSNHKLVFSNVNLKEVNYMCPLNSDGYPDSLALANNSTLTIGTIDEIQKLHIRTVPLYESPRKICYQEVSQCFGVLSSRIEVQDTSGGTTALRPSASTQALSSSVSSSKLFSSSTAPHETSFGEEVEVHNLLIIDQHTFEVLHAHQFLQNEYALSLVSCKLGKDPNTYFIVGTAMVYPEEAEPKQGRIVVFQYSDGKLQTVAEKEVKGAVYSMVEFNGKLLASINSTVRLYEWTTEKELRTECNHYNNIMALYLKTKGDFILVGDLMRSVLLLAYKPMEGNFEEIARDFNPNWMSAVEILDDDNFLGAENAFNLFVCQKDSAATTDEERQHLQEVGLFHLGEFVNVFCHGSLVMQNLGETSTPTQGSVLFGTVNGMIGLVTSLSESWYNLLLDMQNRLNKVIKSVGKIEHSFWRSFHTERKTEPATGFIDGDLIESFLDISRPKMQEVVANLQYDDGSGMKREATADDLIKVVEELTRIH
Experimental: (§1) The HiBiT degradation assay for WIZ and ZBTB7A in HUDEP-2 cells was performed as described below. HUDEP-2 cells engineered to express a HiBiT tag in either the WIZ (Widely interspaced zinc finger) or ZBTB7A (Zinc Finger And BTB Domain Containing 7A) proteins were maintained in low attachment flasks in StemSpan SFEM II media supplemented with Penicillin-Streptomycin (50 U/mL), rhSCF (50 ng/mL), rhEPO (3 IU/mL), dexamethasone (0.4 μg/mL) and doxycycline (1 μg/mL). Prior to start of the assay, cell count and viability were measured by trypan blue exclusion using the Vi-cell XR cell viability analyzer. For the HUDEP-2 WIZ HiBiT assay, cells were transferred to a 50 mL conical and centrifuged at 500 g for five minutes. Cells were resuspended in fresh StemSpan SFEM II media supplemented with Penicillin-Streptomycin (50 U/mL), rhSCF (50 ng/mL), rhEPO (3 IU/mL), dexamethasone (0.4 μg/mL) and doxycycline (1 μg/mL) at a density of 1.0×10^6 cells/ml. Forty microliters of cell suspension was dispensed into 384-well Low Flange White Flat Bottom Polystyrene TC-treated Microplates containing pre-dispensed compounds, using a VIAFLO 384 liquid hander, and placed in a 37° C. incubator with 5% CO2. […] After 24 hours of treatment, 40 μL Nano-Glo HiBiT Lytic Detection System reagent was dispensed into each well using a VIAFLO 384 liquid hander. Plates were incubated for 25 minutes at room temperature and the luminescence was read as relative luminescent units using the EnVision plate reader. EC50 and Y-min values were calculated using curves calculated from dotmatics software after the normalization to the DMSO control of 10 different concentrations: 10, 3.33, 1.11, 0.37, 0.12, 0.04 0.0137, 0.0046, 0.0015 and 0.0005 μM respectively.

[3] = target: ZBTB7A (Zinc Finger And BTB Domain Containing 7A) (Homo sapiens (Human), UniProt O95365+Q96SW2); test: HUDEP-2 ZBTB7A HiBiT degradation assay; details: HUDEP-2 ZBTB7A HiBiT cells, 24 hours treatment, luminescence; for DC50: read-out: ZBTB7A EC50
Sequence of ZBTB7A (Zinc Finger And BTB Domain Containing 7A) (O95365 whole entry, the tested form may be a part): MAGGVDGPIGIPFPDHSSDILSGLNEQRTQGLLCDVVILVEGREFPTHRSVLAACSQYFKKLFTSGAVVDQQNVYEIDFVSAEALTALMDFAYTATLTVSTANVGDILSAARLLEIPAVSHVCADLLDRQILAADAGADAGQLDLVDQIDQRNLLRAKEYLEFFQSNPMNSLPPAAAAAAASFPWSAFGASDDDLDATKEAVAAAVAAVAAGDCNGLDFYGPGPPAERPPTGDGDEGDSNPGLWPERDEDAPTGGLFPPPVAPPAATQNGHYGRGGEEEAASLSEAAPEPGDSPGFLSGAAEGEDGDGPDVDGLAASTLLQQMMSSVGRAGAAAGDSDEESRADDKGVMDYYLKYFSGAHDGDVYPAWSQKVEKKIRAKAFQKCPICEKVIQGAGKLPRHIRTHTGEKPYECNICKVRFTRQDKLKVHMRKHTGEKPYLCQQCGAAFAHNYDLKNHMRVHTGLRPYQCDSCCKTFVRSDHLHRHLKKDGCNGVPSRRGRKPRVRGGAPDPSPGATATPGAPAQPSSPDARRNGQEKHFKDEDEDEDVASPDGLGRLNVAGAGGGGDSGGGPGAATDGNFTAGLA
Sequence of ZBTB7A (Zinc Finger And BTB Domain Containing 7A) (Q96SW2 whole entry, the tested form may be a part): as the sequence (Q96SW2 whole entry, the tested form may be a part) above
Sequence of ZBTB7A (Zinc Finger And BTB Domain Containing 7A) (Q16531 whole entry partner, the tested form may be a part): as the sequence (Q16531 whole entry partner, the tested form may be a part) above
Experimental: as §1
For the HUDEP-2 ZBTB7A HiBiT assay, cell count and viability were measured by trypan blue exclusion using the Vi-cell XR cell viability analyzer and the cells were transferred to a 50 mL conical and centrifuged at 500 g for five minutes. Cells were resuspended in fresh IMDM media supplemented with L-Glutamine (1×), Penicillin-Streptomycin (50 U/mL), holo-transferrin (330 μg/mL), heparin (2 IU/mL), r-human Insulin (10 μg/mL), rhEPO (3 IU/mL), rhSCF (100 ng/mL)+Dox (1 μg/mL) and 5% human plasma in low attachment flasks, which were placed in a 37° C. incubator with 5% CO2. After 48 hours, cell count and viability were measured by trypan blue exclusion using the Vi-cell XR cell viability analyzer. The HUDEP-2 ZBTB7A cells were transferred to a 50 mL conical, centrifuged at 500 g for five minutes and resuspended at a density of 1.0×10^6 cells/ml in IMDM media supplemented with L-Glutamine (1×), Penicillin-Streptomycin (50 U/mL), holo-transferrin (330 μg/mL), heparin (2 IU/mL), r-human Insulin (10 μg/mL), rhEPO (3 IU/mL), rhSCF (100 ng/mL)+Dox (1 μg/mL) and 5% human plasma. Forty microliters of cell suspension was dispensed into 384-well Low Flange White Flat Bottom Polystyrene TC-treated Microplates containing pre-dispensed compounds, using a VIAFLO 384 liquid hander, and placed in a 37° C. incubator with 5% CO2. […] After 24 hours of treatment, 40 μL Nano-Glo HiBiT Lytic Detection System reagent was dispensed into each well using a VIAFLO 384 liquid hander. Plates were incubated for 25 minutes at room temperature and the luminescence was read as relative luminescent units using the EnVision plate reader. EC50 and Y-min values were calculated using curves calculated from dotmatics software after the normalization to the DMSO control of 10 different concentrations: 10, 3.33, 1.11, 0.37, 0.12, 0.04 0.0137, 0.0046, 0.0015 and 0.0005 μM respectively.

SMILES | activation at 1 µM [1] [%] | EC50 [2] [nM] | EC50 [3] [nM] | DC50 [2] [nM] | DC50 [3] [nM]
Cc1cc(-c2cc3c(cc2Nc2cccc4c2C(=O)N([C@H]2CCC(=O)NC2=O)C4=O)n(C)c(=O)n3C)cc(C)n1 [Compound 40, (S)-4-((6-(2,6-dimethylpyridin-4-yl)-1,3-dimethyl-2-oxo-2,3-dihydro-1H-benzo[d]imidazol-5-yl)amino)-2-(2,6-dioxopiperidin-3-yl)isoindoline-1,3-dione] | 66 to 100 | < 10 | < 30 |  | 
O=C1CCC(N2C(=O)c3cccc(Nc4cc5cnn(C6CCOCC6)c5cc4C4CC4)c3C2=O)C(=O)N1 (stereo not drawn) [Compound 10, 4-((6-cyclopropyl-1-(tetrahydro-2H-pyran-4-yl)-1H-indazol-5-yl)amino)-2-(2,6-dioxopiperidin-3-yl)isoindoline-1,3-dione] | 66 to 100 | < 10 | > 100 |  | 
Cn1ncc2cc(Nc3cccc4c3C(=O)N(C3CCC(=O)NC3=O)C4=O)c(Oc3cccc(Cl)c3)cc21 (stereo not drawn) [Compound 25, 4-((6-(3-chlorophenoxy)-1-methyl-1H-indazol-5-yl)amino)-2-(2,6-dioxopiperidin-3-yl)isoindoline-1,3-dione] | 33 to 66 |  | > 100 | 10 to 100 | 
Cn1ncc2cc(Nc3cccc4c3C(=O)N(C3CCC(=O)NC3=O)C4=O)c(-c3cccc(C(F)(F)F)c3)cc21 (stereo not drawn) [Compound 28, 2-(2,6-dioxopiperidin-3-yl)-4-((1-methyl-6-(3-(trifluoromethyl)phenyl)-1H-indazol-5-yl)amino)isoindoline-1,3-dione] | < 33 |  | > 100 | > 100 | 
COc1ccc(-c2cc3c(cnn3C)cc2Nc2cccc3c2C(=O)N(C2CCC(=O)NC2=O)C3=O)cc1F (stereo not drawn) [Compound 14, 2-(2,6-dioxopiperidin-3-yl)-4-((6-(3-fluoro-4-methoxyphenyl)-1-methyl-1H-indazol-5-yl)amino)isoindoline-1,3-dione] | 66 to 100 |  | > 100 | > 100 | 
Cn1ncc2cc(Nc3cccc4c3C(=O)N(C3CCC(=O)NC3=O)C4=O)c(Oc3ccc(F)cc3)cc21 (stereo not drawn) [Compound 17, 2-(2,6-dioxopiperidin-3-yl)-4-((6-(4-fluorophenoxy)-1-methyl-1H-indazol-5-yl)amino)isoindoline-1,3-dione] | 66 to 100 |  |  | 10 to 100 | 30 to 100
COc1cc(OCCN2CCCCC2)ccc1Nc1cccc2c1C(=O)N(C1CCC(=O)NC1=O)C2=O (stereo not drawn) [Compound 12, 2-(2,6-dioxopiperidin-3-yl)-4-((2-methoxy-4-(2-(piperidin-1-yl)ethoxy)phenyl)amino)isoindoline-1,3-dione] | 66 to 100 | < 10 |  |  | 30 to 100
Cc1cc(-c2cc3c(cnn3C)cc2Nc2cccc3c2C(=O)N(C2CCC(=O)NC2=O)C3=O)ccn1 (stereo not drawn) [Compound 19, 2-(2,6-dioxopiperidin-3-yl)-4-((1-methyl-6-(2-methylpyridin-4-yl)-1H-indazol-5-yl)amino)isoindoline-1,3-dione] | 66 to 100 |  | > 100 | > 100 | 
Cc1cc(-c2cc3c(cnn3[C@@H]3CCOC3)cc2Nc2cccc3c2C(=O)N([C@H]2CCC(=O)NC2=O)C3=O)ccn1 [Compound 44, 2-((S)-2,6-dioxopiperidin-3-yl)-4-((6-(2-methylpyridin-4-yl)-1-((R)-tetrahydrofuran-3-yl)-1H-indazol-5-yl)amino)isoindoline-1,3-dione] | 66 to 100 |  |  | 10 to 100 | 30 to 100
Cc1cc(-c2cc3c(cc2Nc2cccc4c2C(=O)N(C2CCC(=O)NC2=O)C4=O)N(C)C(=O)CC3)ccn1 (stereo not drawn) [Compound 43, 2-(2,6-dioxopiperidin-3-yl)-4-((1-methyl-6-(2-methylpyridin-4-yl)-2-oxo-1,2,3,4-tetrahydroquinolin-7-yl)amino)isoindoline-1,3-dione] | 66 to 100 | < 10 | < 30 |  | 
O=C1CCC(N2C(=O)c3cccc(Nc4cc5cnn(C6CCOCC6)c5cc4Oc4cccc(F)c4)c3C2=O)C(=O)N1 (stereo not drawn) [Compound 16, 2-(2,6-dioxopiperidin-3-yl)-4-((6-(3-fluorophenoxy)-1-(tetrahydro-2H-pyran-4-yl)-1H-indazol-5-yl)amino)isoindoline-1,3-dione] | 66 to 100 | < 10 | > 100 |  | 
